From US5472966A, “Antidepressant heteroarylaminoalkyl derivatives of naphthyl-monazines” (Bristol-Myers Squibb Company, priority 1995, dated 1995)
Where a name gives a salt, the structure may show the parent alone.

Tested on: serotonin re-uptake (synaptosomal re-uptake of tritiated serotonin)
Experiment: Inhibition of synaptosomal re-uptake of tritiated serotonin
Type: biochemical
Settings: in vitro; nM of test compound that inhibits uptake by 50%; read-out: SUI (Serotonin Uptake Inhibition potency), in vitro IC50
Method: Determination of endogenous monoaminergic re-uptake inhibition values for serotonin was accomplished using test methods described by P. Skolnick, et al., Br. J. Pharmacology, (1985), 86, pp. 637-644; with only minor modifications. In vitro IC50 (nM) test values were determined for representative compounds of Formula I based on their inhibition of synaptosomal re-uptake of tritiated serotonin. Test data IC50 values lower than 500 nM are considered to reflect activity as an inhibitor of serotonin re-uptake.

| SMILES | IC50 |
| --- | --- |
| COc1cccnc1N(C)CCCN1CC=C(c2cccc3ccccc23)CC1 [Example 14, 3,6-dihydro-N-(3-methoxy-2-pyridinyl)-N-methyl-4-(1-naphthalenyl)-1(2H)-pyridinepropanamine fumarate] | < 100 nM |
| CCOc1cccnc1N(C)CCCN1CC=C(c2cccc3ccccc23)CC1 [Example 15, 3,6-dihydro-N-(3-ethoxy-2-pyridinyl)-N-methyl-4-(1-naphthalenyl)-1(2H)-pyridinepropanamine fumarate] | < 100 nM |
| CN(CCCN1CC=C(c2cccc3ccccc23)CC1)c1cc(C(F)(F)F)ccn1 [Example 16, 3,6-dihydro-N-methyl-N-(4-trifluoromethyl-2-pyridinyl)-4-(1-naphthalenyl)-1(2H)-pyridinepropanamine fumarate] | < 100 nM |
| CN(CCCN1CC=C(c2cccc3ccccc23)CC1)c1ccc(Cl)cn1 [Example 17, 3,6-dihydro-N-methyl-N-(5-chloro-2-pyridinyl)-4-(1-naphthalenyl)-1(2H)-pyridinepropanamine fumarate] | < 10 nM |
| CN(CCCN1CC=C(c2cccc3ccccc23)CC1)c1cccc(C(F)(F)F)n1 [Example 18, 3,6-dihydro-N-methyl-N-(6-trifluoromethyl-2-pyridinyl)-4-(1-naphthalenyl)-1(2H)-pyridinepropanamine fumarate] | < 100 nM |
| CN(CCCN1CC=C(c2cccc3ccccc23)CC1)c1cc(Cl)ccn1 [Example 19, 3,6.dihydro-N-methyl-N-(4-chloro-2-pyridinyl)-4-(1-naphthalenyl)-1(2H)-pyridinepropanamine] | < 100 nM |
| CN(CCCN1CC=C(c2cccc3ccccc23)CC1)c1ccnc(Cl)c1 [Example 20, 3,6-dihydro-N-methyl-N-(2-chloro-4-pyridinyl)-4-(1-naphthalenyl)-1(2H)-pyridinepropanamine fumarate] | < 10 nM |
| COc1cncnc1N(C)CCCN1CC=C(c2cccc3ccccc23)CC1 [Example 21, 3,6-dihydro-N-(5-methoxy-4-pyrimidinyl)-N-methyl-4-(1-naphthalenyl)-1(2H)-pyridinepropanamine fumarate] | < 10 nM |
| CCN(CCCN1CC=C(c2cccc3ccccc23)CC1)c1ncncc1OC [Example 22, 3,6-dihydro-N-(5-methoxy-4-pyrimidinyl)-N-ethyl-4-(1-naphthalenyl)-1(2H)-pyridinepropanamine fumarate] | < 10 nM |
| COc1ccc2cccc(C3=CCN(CCCNc4ncncc4OC)CC3)c2c1 [Example 23, 3,6-dihydro-4-(7-methoxy-1-naphthalenyl)-N-(5-methoxy-4-pyrimidinyl)-1(2H)-pyridinepropanamine fumarate] | < 100 nM |
| COc1cncnc1NCCCN1CC=C(c2cccc3ccc(F)cc23)CC1 [Example 24, 3,6-dihydro-4-(7-fluoro-1-naphthalenyl)-N-(5-methoxy-4-pyrimidinyl-1(2H)-pyridinepropanamine fumarate] | < 500 nM |
| COc1cncnc1NCCCN1CC=C(c2cccc3ccc(Cl)cc23)CC1 [Example 25, 3,6-dihydro-4-(7-chloro-1-naphthalenyl)-N-(5-methoxy-4-pyrimidinyl)-1(2H)-pyridinepropanamine fumarate] | < 500 nM |
| COc1cncnc1NCCN1CC=C(c2cccc3ccccc23)CC1 [Example 26, 3.6-dihydro-4-(1-naphthalenyl)-N-(5-methoxy-4-pyrimidinyl)-1(2H)-pyridineethanamine fumarate] | < 100 nM |
| COc1cncnc1NCCCN1CC=C(c2cccc3ccccc23)CC1 [Example 27, 3.6-dihydro-4-(1-naphthalenyl)-N-(5-methoxy-4-pyrimidinyl)-1(2H)-pyridinepropanamine hydrochloride] | < 10 nM |
| CCOc1cncnc1NCCCN1CC=C(c2cccc3ccccc23)CC1 [Example 28, 3,6-dihydro-4-(1-naphthalenyl)-N-(5-ethoxy-4-pyrimidinyl)-1-(2H)-pyridinepropanamine fumarate] | < 10 nM |
| COc1cnccc1NCCCN1CC=C(c2cccc3ccccc23)CC1 [Example 29, 3,6-dihydro:4-(1-naphthalenyl)-N-(3-methoxy-4-pyridinyl)-1(2H)-pyridinepropanamine fumarate] | < 100 nM |
| Clc1nccnc1NCCCN1CC=C(c2cccc3ccccc23)CC1 [Example 30, 3,6-dihydro-4-(1-naphthalenyl)-N-(3-chloro-2-pyrazinyl)-1(2H)-pyridinepropanamine fumarate] | < 10 nM |
| COc1nccnc1NCCCN1CC=C(c2cccc3ccccc23)CC1 [Example 31, 3,6-dihydro-4-(1-naphthalenyl)-N-(3-methoxy-2-pyrazinyl)-1(2H)-pyridinepropanamine fumarate] | < 10 nM |
| COc1cncnc1NCCCCN1CC=C(c2cccc3ccccc23)CC1 [Example 32, 3,6-dihydro-N-(5-methoxy-4-pyrimidinyl)-4-(1-naphthalenyl)-1(2H)-pyridinebutanamine fumarate] | < 100 nM |
| COc1cccnc1NCCCN1CC=C(c2cccc3ccccc23)CC1 [Example 33, 3,6-dihydro-N-(3-methoxy-2-pyridinyl)-4-(1-naphthalenyl)-1(2H)pyridinepropanamine fumarate] | < 10 nM |
| CCOc1cccnc1NCCCN1CC=C(c2cccc3ccccc23)CC1 [Example 34, 3,6-dihydro-N-(3-ethoxy-2-pyridinyl)-4-(1-naphthalenyl)-1(2H)-pyridinepropanamine fumarate] | < 10 nM |
| FC(F)(F)c1cccc(NCCCN2CC=C(c3cccc4ccccc34)CC2)n1 [Example 35, 3,6-dihydro-N-(6-trifluoromethyl-2-pyridinyl)-4-(1-napthalenyl)-1(2H)-pyridinepropanamine fumarate] | < 100 nM |
| Clc1ccc(NCCCN2CC=C(c3cccc4ccccc34)CC2)nc1 [Example 36, 3,6-dihydro-N-(5-chloro-2-pyridinyl)-4-(1-naphthalenyl)-1(2H)-pyridinepropanamine fumarate] | < 10 nM |
| FC(F)(F)c1ccnc(NCCCN2CC=C(c3cccc4ccccc34)CC2)c1 [Example 37, 3,6dihydro-N-(4-trifluromethyl-2-pyridinyl)-4-(1-napthalenyl-1(2H)-pyridinepropanamine fumarate] | < 100 nM |
| COc1cncnc1NCCCN1CCC(c2cccc3ccccc23)CC1 [Example 38, 4-(1-naphthalenyl)-N-(5-methoxy-4-pyrimidinyl)-1-piperidinepropanaminefumarate] | < 10 nM |
| C1=C(c2cccc3ccccc23)CCN(CCCNc2cccc3ccccc23)C1 [Example 39, 3,6-dihydro-N-(1-naphthalenyl)-4-(1-naphthalenyl)-1(2H)-pyridinepropanamine fumarate] | < 10 nM |
| COc1ccccc1NCCCN1CC=C(c2cccc3ccccc23)CC1 [Example 40, 3,6-dihydro-N-(2-methoxyphenyl)-4-(1-naphthalenyl)-1-(2H)-pyridinepropanamine fumarate] | < 10 nM |
| Clc1cccc(NCCCN2CC=C(c3cccc4ccccc34)CC2)c1 [Example 41, 3,6-dihydro-N-(3-chlorophenyl)-4-(1-naphthalenyl)-1(2H)-pyridinepropanamine fumarate] | < 100 nM |
| FC(F)(F)c1cccc(NCCCN2CC=C(c3cccc4ccccc34)CC2)c1 [Example 42, 3,6-dihydro-N-(3-trifluoromethylphenyl)-4-(1-naphthalenyl)-1(2H)-pyridinepropanamine fumarate] | < 100 nM |
